Reference: ChEMBL document CHEMBL3301472, “MMV Malaria Box HIV and cytotoxicity screening”

Assays:
[1] = test system: Human immunodeficiency virus 1; test: MMV: HIV JRFL CCR5-tropic replication-competent virus, virus & compound washed out Day 1 pi, P24 ELISA Day 7 pi, U87-CD4-CCR5, % inhibition at 5 mM compound; type: functional; set-up: dose or concentration left out as unconfirmed; conditions: Human immunodeficiency virus 1, JR-FL
[2] = MMV: MTT Cytotoxicity Assay Day 3 pi, U87-CD4-CCR5 cells, % cell death @ 5mM compound; type: toxicity, cell-based; conditions: human, u87-cd4-ccr5, 5000 µM
[3] = MMV: MTT Cytotoxicity Assay Day 7 pi of Assay #10 (NO washout), U87-CD4-CCR5 cells, % cell death @ 5mM compound; type: toxicity, cell-based; conditions: human, u87-cd4-ccr5, 5000 µM
[4] = test system: Human immunodeficiency virus 1; test: MMV: HIV NL4-3 CXCR4-tropic replication-competent virus, NO washout, P24 ELISA Day 7 pi, U87-CD4-CXCR4, % inhibition at 5 mM compound; type: functional; set-up: dose or concentration left out as unconfirmed; conditions: Human immunodeficiency virus 1, NL4-3, U87.CD4.CXCR4, 168 h
[5] = MMV: MTT Cytotoxicity Assay Day 7 pi of Assay #6 (compound washed out Day 1 pi), U87-CD4-CCR5 cells, % cell death @ 5mM compound; type: toxicity, cell-based; conditions: human, u87-cd4-ccr5, 5000 µM
[6] = MMV: MTT Cytotoxicity Assay Day 7 pi of Assay #11 (NO washout), U87-CD4-CXCR4 cells, % cell death @ 5mM compound; type: toxicity, cell-based; conditions: human, u87-cd4-cxcr4, 5000 µM
[7] = MMV: MTT Cytotoxicity Assay Day 7 pi of Assay #7 (compound washed out Day 1 pi), U87-CD4-CXCR4 cells, % cell death @ 5mM compound; type: toxicity, cell-based; conditions: human, u87-cd4-cxcr4, 5000 µM
[8] = MMV: MTT Cytotoxicity Assay Day 3 pi, U87-CD4-CXCR4 cells, % cell death @ 5mM compound; type: toxicity, cell-based; conditions: human, u87-cd4-cxcr4, 5000 µM
[9] = test system: Human immunodeficiency virus 1; test: MMV: HIV NL4-3 CXCR4-tropic replication-competent virus, virus & compound washed out Day 1 pi, P24 ELISA Day 7 pi, U87-CD4-CXCR4, % inhibition at 5 mM compound; type: functional; set-up: dose or concentration left out as unconfirmed; conditions: Human immunodeficiency virus 1, NL4-3, U87.CD4.CXCR4

Row | SMILES | inhibition [1] [%] | % Cell Death [2] | % Cell Death [3] | inhibition [4] [%] | % Cell Death [5] | % Cell Death [6] | % Cell Death [7] | % Cell Death [8] | inhibition [9] [%]
1 | Cc1ccc(S(=O)(=O)c2c(COC(=O)c3cccc(C)c3)c(-c3ccccc3)nn2C)cc1 | 5 | 27 | 16 | 7 | 5 | 31 | 22 | 22 | –
2 | COc1ccc(C2Sc3ccccc3N=C3C2=C(O)c2ccccc23)cc1 (centres undefined) | 7 | 0 | 17 | – | 7 | 3 | -32 | 10 | 7
3 | CCCn1c(=N)c(C(=O)NC2CCCCC2)cc2c(=O)n3cccc(C)c3nc21 | – | 29 | 43 | 4 | 0 | -51 | -17 | 35 | –
4 | CCN(CC)CCNc1ccnc2cc3ccccc3cc12.O=P(O)(O)O | 9 | 33 | 10 | – | -26 | -36 | -15 | 28 | -1
5 | O=C(O)C(=O)O.Oc1ccccc1CN1CCN(C(c2ccccc2)c2ccccc2)CC1 | – | 4 | 22 | 0 | 2 | 56 | 28 | 12 | –
6 | O=C1c2ccc3c4c(ccc(c24)C(=O)N1CCCCO)C(=O)N(CCCCO)C3=O | – | 39 | 61 | 2 | 16 | -30 | -43 | 27 | –
7 | Cc1c(C)n(CC(O)CNC2CCCCC2C)c2ccccc12 (centres undefined) | – | -17 | -14 | 7 | -11 | -68 | -17 | 18 | –
8 | CCCCCCC(O)(c1ccc(F)cc1)C(CN1CCOCC1)c1ccccc1.Cl (centres undefined) | – | 13 | -2 | – | 3 | -35 | -17 | 12 | 8
9 | CCOc1cc(Cl)c(C(C)NC(=O)c2ccccc2)cc1OCC (centres undefined) | 0 | 28 | 15 | – | -4 | 90 | -6 | 34 | 1
10 | COc1cccc(Cn2c(Oc3ccccc3)nc3c2c(=O)n(C)c(=O)n3C)c1 | – | -1 | 39 | 9 | 32 | 32 | 3 | 15 | –
11 | CC1(c2ccccc2)Nc2ccccc2-c2nc3ccccc3n21 (centres undefined) | – | 10 | 29 | 4 | -21 | -43 | -19 | 24 | –
12 | CCCC(c1nnnn1C1CCCCC1)N1CCN(C(=O)c2ccco2)CC1.Cl (centres undefined) | – | -3 | -2 | 7 | -14 | 34 | -21 | 12 | –
13 | CC(C)CCNCC(O)Cn1c2ccccc2c2ccccc21.Cl (centres undefined) | – | 6 | -11 | 1 | -10 | -6 | -6 | 32 | –
14 | COCCn1c(C)nc2ccccc2c1=O | 3 | 23 | 14 | – | -8 | 32 | 11 | 19 | 2
15 | OC(Cn1nnc2ccccc21)Cn1c2ccc(Br)cc2c2cc(Br)ccc21 (centres undefined) | -2 | 15 | 27 | – | 2 | 18 | 8 | -29 | 1
16 | OC1CCCCC1C1(NC(=S)Nc2ccccc2)CCCCC1 (centres undefined) | 7 | 23 | 4 | 8 | -5 | -25 | 29 | 11 | –
17 | CCOc1cc2c(cc1OCC)C(c1cc(Cl)c(O)c(OCC)c1)NCC2 (centres undefined) | – | -45 | 21 | – | 8 | 38 | -20 | 15 | 3
18 | CCCc1c(C)nc2ccc(Br)cc2c1O | – | 4 | 25 | – | -7 | 27 | 7 | 29 | 5
19 | COc1ccc(C(=O)Nc2ccc3nc(N4CCCCC4)cc(C)c3c2)cc1OC | – | 108 | 91 | – | 78 | 106 | 16 | 23 | 5
20 | CC(C)(C)c1ccc(C(=O)Nc2c3c(nn2-c2cccc(Cl)c2)CSC3)cc1 | – | 7 | 7 | – | 2 | 1 | -2 | -37 | 7
21 | CSC1=NC(=Nc2c(C)cccc2C)C2(CCC(C(C)(C)C)CC2)N1c1ccc(Cl)cc1 (centres undefined) | – | 3 | 12 | 9 | 1 | 0 | -6 | 6 | –
22 | COc1ccc(NC(=O)C2c3ccccc3C(=O)N(CC(C)C)C2c2cccs2)cc1 (centres undefined) | 3 | 16 | -9 | – | -1 | -27 | -38 | 13 | 6
23 | Nc1ccn([C@@H]2O[C@H](CO)[C@@H](O)[C@H]2O)c(=O)n1 [CYTIDINE] | – | -30 | 26 | 6 | -9 | 0 | 24 | 28 | –
